Paper PMC11435438, “Cyclin-Dependent Kinase 8 Represents a Positive Regulator of Cytomegalovirus Replication and a Novel Host Target for Antiviral Strategies” (Pharmaceutics, 2024)
Read-outs that look alike come from different tables or passages of the source.

Columns and labels:
HCMV AD169-GFP [1] = test: microbe, parasite or virus in culture; assay type: cell-based, human cytomegalovirus; conditions: ratio CC50/EC50; HCMV AD169-GFP, HFFs
Method: (i.e., 1 × TCID25/7d). Immediately after virus adsorption, the cells were treated with antiviral compounds or solvent control (DMSO). Infections were performed in biological quadruplicates, or as indicated for individual experiments. The cells were fixed by the addition of 150 µL 10% formalin/well 7 d p.i. (Merlin-GFP 14 d p.i.), and washed with PBS. For GFP or YFP quantitation, the Victor X4 microplate reader (PerkinElmer, Waltham, MA, USA) was primarily used, or as a very sensitive alternative, the ImageXpress® Pico device (Molecular Devices LLC, San Jose, CA, USA). Mean EC50 values of antiviral efficacy were calculated on the basis of three experimental replicates or as indicated (measurement of fluorescence values in quadruplicate), and percentage values were provided relative to the solvent control (DMSO).

HCMV AD169-GFP [2] = test system: HCMV AD169-GFP; parameters: method as in PMID 35269635; conditions: GFP-based replication assay in HFFs, mean ± SD; cited from earlier work
mock-infected HFFs = conditions: cited from earlier work
[3] = test system: HCMV core NEC pUL50-pUL53; test: Nuclear rim localization of viral core NEC pUL50-pUL53 (IF, confocal imaging); assay type: cell-based, human cytomegalovirus; conditions: 0.5 µM MBV, 5 nM CCT, 2 nM MSC, 0.7 nM BI; HFFs, AD169-UL50-HA MOI 0.05, 7 d p.i.
Method: In order to investigate viral protein expression and localization, 3 × 10^5 HFFs were seeded in 6-well plates one day prior to infection with HCMV AD169-UL50-HA (MOI 0.05). After 90 min of viral absorption, cells were treated with 0.5 µM MBV, 5 nM CCT, 2 nM MSC or 0.7 nM BI-1347. The infected cells were fixed at 7 d p.i., before indirect immunofluorescence staining was performed for viral IE1, pUL50, and pUL53, and signals were evaluated by confocal laser-scanning microscopy (Leica Microsystems, TCS SP5, Wetzlar, Germany). The counterstaining of the nuclei was performed with DAPI.

[4] = mock-infected HFFs, Neutral Red assay, mean ± SD

Cc1c(Br)c(Br)c2c3c1nc(N1CCNCC1)n3CCC2 [SEL120]
SI (selectivity index) (HCMV AD169-GFP [1]): 75 | EC50 (HCMV AD169-GFP [2]): 79 ± 1 nM | CC50 (mock-infected HFFs; [4]): 5900 ± 3850 nM

CC(C)c1cnn2c(NCc3ccccc3-n3cccn3)nc(OC3CCCNC3)nc12 (stereo not drawn) [LDC4297]
EC50 (HCMV AD169-GFP [2]): 9 ± 2 nM | CC50 (mock-infected HFFs): > 10000 nM

CC(C)Nc1nc2cc(Cl)c(Cl)cc2n1[C@H]1O[C@@H](CO)[C@H](O)[C@@H]1O [MBV, maribavir]
SI (selectivity index) (HCMV AD169-GFP [1]): >250 | nuclear rim localization of core NEC pUL50-pUL53 [3]: clear disruption of the smooth rim | EC50 (HCMV AD169-GFP [2]): 350 ± 420 nM | CC50 (mock-infected HFFs; [4]): > 100000 nM
